# Experimental data taken from ChEMBL document CHEMBL1201862, “PubChem BioAssay data set” (2004).
# Active and inactive are the calls of the source.
# What was measured:
# [1] = molecular target: T1, Hexokinase HKDC1 (Homo sapiens, UniProt Q2TB90); assay: inhibition of HKDC1 glucose phosphorylation – biochemical, W721R variant, dose response (AID 504729); format: functional
# T1 sequence (Q2TB90 whole entry): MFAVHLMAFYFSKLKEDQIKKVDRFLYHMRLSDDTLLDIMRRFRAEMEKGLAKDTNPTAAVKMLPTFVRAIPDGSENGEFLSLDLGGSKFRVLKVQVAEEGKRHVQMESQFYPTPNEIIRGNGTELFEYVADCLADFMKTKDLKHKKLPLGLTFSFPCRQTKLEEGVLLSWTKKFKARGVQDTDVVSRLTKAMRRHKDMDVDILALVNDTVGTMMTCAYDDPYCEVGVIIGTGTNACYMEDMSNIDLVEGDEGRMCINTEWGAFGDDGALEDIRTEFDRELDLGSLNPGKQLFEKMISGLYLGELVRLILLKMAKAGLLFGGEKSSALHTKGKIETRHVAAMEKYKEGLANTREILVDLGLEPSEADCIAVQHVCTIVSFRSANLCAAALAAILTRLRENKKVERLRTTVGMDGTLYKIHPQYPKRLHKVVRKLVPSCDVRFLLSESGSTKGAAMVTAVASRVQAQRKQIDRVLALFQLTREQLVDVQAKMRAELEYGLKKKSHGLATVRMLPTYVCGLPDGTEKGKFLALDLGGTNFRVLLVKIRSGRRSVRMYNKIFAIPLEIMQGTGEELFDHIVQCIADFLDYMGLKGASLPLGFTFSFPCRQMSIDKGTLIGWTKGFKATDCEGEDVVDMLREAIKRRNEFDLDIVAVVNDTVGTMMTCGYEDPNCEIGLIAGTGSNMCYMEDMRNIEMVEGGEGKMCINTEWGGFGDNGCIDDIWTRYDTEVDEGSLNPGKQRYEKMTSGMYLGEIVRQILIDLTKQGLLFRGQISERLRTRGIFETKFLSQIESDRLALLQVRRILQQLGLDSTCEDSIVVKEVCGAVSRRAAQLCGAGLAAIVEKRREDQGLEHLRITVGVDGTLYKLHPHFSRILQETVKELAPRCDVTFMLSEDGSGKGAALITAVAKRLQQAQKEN
# [2] = system: Vero; assay: host cell viability loss, Vero E6 – synthesized analogs, cytotoxicity control for West Nile virus antiviral project, SAR follow-up (AID 2244); format: functional; conditions: Chlorocebus sabaeus
# [3] = molecular target: Trypsin (Sus scrofa, UniProt P00761); assay: trypsin protease activity blockade – biochemical, quenched peptide fluorescence, cherry-pick, selectivity assay for Rce1 protease inhibitor project, dose response (AID 488789)
# [4] = molecular target: T2, CAAX prenyl protease 2 (Homo sapiens, UniProt Q9Y256); assay: inhibition of Ras-converting CAAX protease Rce1 – biochemical, yeast membranes, quenched-peptide fluorescence, cherry-pick, dose response (AID 588849)
# T2 sequence (Q9Y256 whole entry): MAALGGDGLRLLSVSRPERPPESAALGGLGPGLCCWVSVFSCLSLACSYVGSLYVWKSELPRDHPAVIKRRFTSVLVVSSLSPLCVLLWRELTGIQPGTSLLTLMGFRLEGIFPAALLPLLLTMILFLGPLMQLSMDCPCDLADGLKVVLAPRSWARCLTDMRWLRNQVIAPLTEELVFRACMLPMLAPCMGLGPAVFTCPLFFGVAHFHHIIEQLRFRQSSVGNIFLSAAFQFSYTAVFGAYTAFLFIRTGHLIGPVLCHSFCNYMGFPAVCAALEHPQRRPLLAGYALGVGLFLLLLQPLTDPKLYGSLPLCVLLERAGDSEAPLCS
# [5] = Luminescence Cell-Based Dose Retest to Confirm Inhibitors of Cancer Stem Cells. [Related pubchem assays (depositor defined):AID2717, AID2721]; format: functional; conditions: Homo sapiens
# [6] = molecular target: FAD-linked sulfhydryl oxidase ALR (Homo sapiens, UniProt P55789); assay: ALR-catalysed DTT oxidation blockers – biochemical, H2O2 detection, luminescence, cherry-pick, dose response (AID 493248)
# [7] = system: INS1; assay: INS-1E survival protection against cytokine death – cell-based, luminescence, retest, dose response (AID 449756); format: functional; conditions: Rattus norvegicus;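 further: cell death triggered by IL-1 beta plus TNF-alpha plus IFN-gamma mixture; protective hits raise ATP signal compared with cytokine alone wells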
# [8] = system: HeLa; assay: viability loss in HeLa cells – cell-based, 24 h, cherry-picked samples, cytotoxicity control, dose response (AID 504726); format: functional; conditions: Homo sapiens;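 further: potency for cytotoxicity as loss of luminescence signal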
# [9] = molecular target: T3, Aminopeptidase N (Plasmodium falciparum FcB1/Columbia, UniProt O96935); assay: malaria alanyl aminopeptidase activity blockers – biochemical, fluorogenic H-Leu-NHMec substrate, 1536-well (AID 1445); parameters: species or system Plasmodium falciparum 3D7, 3D7
# T3 sequence (O96935 whole entry): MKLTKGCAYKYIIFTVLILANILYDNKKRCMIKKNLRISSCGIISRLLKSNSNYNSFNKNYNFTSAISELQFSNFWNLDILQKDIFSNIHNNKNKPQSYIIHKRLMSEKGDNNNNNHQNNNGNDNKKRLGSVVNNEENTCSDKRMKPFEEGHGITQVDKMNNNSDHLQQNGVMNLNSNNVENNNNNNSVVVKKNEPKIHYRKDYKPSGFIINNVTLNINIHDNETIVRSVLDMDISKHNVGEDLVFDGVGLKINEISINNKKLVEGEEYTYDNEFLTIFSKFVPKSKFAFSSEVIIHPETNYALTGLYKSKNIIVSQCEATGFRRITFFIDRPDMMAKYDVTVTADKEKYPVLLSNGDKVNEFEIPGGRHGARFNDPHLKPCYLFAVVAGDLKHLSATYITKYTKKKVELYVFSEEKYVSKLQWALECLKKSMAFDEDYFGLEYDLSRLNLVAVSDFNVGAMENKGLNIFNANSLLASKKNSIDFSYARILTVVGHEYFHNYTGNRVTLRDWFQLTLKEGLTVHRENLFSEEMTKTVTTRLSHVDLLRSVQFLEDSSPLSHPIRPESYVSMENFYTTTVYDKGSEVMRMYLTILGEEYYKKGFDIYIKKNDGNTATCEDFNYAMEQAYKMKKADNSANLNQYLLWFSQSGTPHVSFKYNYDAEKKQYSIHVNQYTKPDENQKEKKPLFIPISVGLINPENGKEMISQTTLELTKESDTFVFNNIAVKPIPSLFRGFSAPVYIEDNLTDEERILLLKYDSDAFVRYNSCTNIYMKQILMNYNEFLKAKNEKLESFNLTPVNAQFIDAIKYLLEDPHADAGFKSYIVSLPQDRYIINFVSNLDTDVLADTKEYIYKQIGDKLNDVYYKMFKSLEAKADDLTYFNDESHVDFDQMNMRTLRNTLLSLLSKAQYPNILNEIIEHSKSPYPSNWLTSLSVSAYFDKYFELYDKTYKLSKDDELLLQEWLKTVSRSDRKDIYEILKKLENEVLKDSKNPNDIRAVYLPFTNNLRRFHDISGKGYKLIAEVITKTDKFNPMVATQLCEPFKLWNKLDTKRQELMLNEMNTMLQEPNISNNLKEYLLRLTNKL
# [10] = molecular target: T4, Short transient receptor potential channel 4 (Mus musculus, UniProt Q9QUQ5); assay: block of DAMGO-driven TRPC4 calcium entry – cell-based, HEK293 TRPC4/mu-opioid, Fluo-4 calcium, dose response (AID 434942); format: functional;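 further: potency of inhibitors blocking the TRPC4 calcium response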
# T4 sequence (Q9QUQ5 whole entry): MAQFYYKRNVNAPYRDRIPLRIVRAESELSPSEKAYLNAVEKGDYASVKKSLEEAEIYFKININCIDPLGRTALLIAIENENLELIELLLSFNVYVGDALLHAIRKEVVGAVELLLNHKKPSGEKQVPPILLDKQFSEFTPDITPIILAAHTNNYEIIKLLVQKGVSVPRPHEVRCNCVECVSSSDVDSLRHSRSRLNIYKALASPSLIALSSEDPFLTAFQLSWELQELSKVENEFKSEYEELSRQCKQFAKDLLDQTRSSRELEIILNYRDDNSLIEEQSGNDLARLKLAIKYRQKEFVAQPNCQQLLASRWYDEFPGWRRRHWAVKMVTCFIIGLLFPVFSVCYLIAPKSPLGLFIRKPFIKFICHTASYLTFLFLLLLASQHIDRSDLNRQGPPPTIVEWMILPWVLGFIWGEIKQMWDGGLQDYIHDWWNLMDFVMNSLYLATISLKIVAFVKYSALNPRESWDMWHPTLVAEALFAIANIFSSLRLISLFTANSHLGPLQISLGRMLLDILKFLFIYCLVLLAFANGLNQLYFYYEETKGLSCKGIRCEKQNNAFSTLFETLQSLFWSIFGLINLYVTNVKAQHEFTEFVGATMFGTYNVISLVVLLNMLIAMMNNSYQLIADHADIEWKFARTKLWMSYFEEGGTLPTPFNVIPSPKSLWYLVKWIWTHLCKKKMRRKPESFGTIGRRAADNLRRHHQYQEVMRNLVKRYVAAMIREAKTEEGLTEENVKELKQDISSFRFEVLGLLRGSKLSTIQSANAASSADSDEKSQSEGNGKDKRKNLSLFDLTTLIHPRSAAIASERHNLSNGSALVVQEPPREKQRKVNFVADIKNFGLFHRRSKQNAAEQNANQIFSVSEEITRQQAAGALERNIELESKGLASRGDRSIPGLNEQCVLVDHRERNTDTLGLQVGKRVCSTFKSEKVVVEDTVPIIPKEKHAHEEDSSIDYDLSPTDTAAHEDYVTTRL
# [11] = molecular target: 26S proteasome non-ATPase regulatory subunit 14 (Homo sapiens, UniProt O00487); assay: inhibition of proteasome subunit RPN11 – biochemical, fluorescence polarization, uHTS hits, confirmation (AID 602368); format: functional
# [12] = molecular target: Nonstructural protein 1 (Influenza A virus, UniProt Q194T2); format: functional, Influenza A virus (A/California/07/2009(H1N1))
# [13] = molecular target: Prothrombin (Bos taurus, UniProt P00735); assay: thrombin protease inhibitors – biochemical, fluorescence polarization, uHTS hits, dose response (AID 602369); format: functional
# [14] = molecular target: 72 kDa type IV collagenase (Homo sapiens, UniProt P08253); assay: Dose Response validation of uHTS RPN11 inhibitor hits using a MMP-2 Fluorescence assay.; format: functional
# [15] = molecular target: Glucose-6-phosphate 1-dehydrogenase (Homo sapiens, UniProt P11413); assay: inhibition of Homo sapiens G6PD, dose series – biochemical, fluorescence, selectivity assay for P. falciparum G6PD inhibitor project, dose response (AID 504792); format: functional
# [16] = THP-1 cell cytotoxicity, dose response, cytotoxicity control for non-replicating M. tuberculosis project (AID 489025); format: functional
# [17] = NIH-3T3 fibroblast cytotoxicity, dose response, cytotoxicity control, cell-based, fluorescence, Alamar Blue, secondary assay (AID 2327); format: functional;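 further: NIH-3T3 mouse fibroblasts cultured with fluconazole at 8 µg/mL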
# [18] = molecular target: Albumin (Bos taurus, UniProt P02769); assay: Counterscreen for inhibitors of T-cell receptor (TCR)-CD3 interaction: Fluorescence-based biochemical high throughput dose response assay to identify inhibitors of T-cell receptor (TCR)-CD3 interaction using a TAMRA-labeled BSA probe.; format: functional
# [19] = fluconazole-exposed Candida albicans growth modulators – fluorescence, retest, confirmation (AID 2467); format: functional, cell-based
# [20] = cells; format: functional, cell-based
# [21] = cells; format: functional, cell-based; remark: listed apart in the source
# [22] = Vero E6 cell cytotoxicity, dose response, cytotoxicity control for non-replicating M. tuberculosis project, secondary assay (AID 492998); format: functional, VeroE6; conditions: Vero C1008
# [23] = HepG2 cell cytotoxicity, dose response, cytotoxicity control for non-replicating M. tuberculosis project (AID 489018); format: functional; conditions: Mycobacterium tuberculosis
# Chain of FAD-linked sulfhydryl oxidase ALR (P55789 whole entry): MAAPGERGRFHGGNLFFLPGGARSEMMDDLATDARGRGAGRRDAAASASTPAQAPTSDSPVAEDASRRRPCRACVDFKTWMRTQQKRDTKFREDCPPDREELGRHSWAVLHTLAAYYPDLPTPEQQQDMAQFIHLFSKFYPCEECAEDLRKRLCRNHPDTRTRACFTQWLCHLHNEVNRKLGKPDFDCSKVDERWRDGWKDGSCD
# Chain of 26S proteasome non-ATPase regulatory subunit 14 (O00487 whole entry): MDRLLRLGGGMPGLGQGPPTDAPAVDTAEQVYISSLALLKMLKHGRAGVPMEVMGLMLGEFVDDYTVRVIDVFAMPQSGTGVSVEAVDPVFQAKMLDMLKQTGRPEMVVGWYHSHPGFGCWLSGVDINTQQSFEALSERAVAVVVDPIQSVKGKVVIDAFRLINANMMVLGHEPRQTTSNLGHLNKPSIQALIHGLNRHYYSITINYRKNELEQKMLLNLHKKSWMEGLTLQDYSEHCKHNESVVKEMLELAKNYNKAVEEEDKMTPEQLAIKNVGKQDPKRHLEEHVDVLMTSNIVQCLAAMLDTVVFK
# Chain of 72 kDa type IV collagenase (P08253 whole entry): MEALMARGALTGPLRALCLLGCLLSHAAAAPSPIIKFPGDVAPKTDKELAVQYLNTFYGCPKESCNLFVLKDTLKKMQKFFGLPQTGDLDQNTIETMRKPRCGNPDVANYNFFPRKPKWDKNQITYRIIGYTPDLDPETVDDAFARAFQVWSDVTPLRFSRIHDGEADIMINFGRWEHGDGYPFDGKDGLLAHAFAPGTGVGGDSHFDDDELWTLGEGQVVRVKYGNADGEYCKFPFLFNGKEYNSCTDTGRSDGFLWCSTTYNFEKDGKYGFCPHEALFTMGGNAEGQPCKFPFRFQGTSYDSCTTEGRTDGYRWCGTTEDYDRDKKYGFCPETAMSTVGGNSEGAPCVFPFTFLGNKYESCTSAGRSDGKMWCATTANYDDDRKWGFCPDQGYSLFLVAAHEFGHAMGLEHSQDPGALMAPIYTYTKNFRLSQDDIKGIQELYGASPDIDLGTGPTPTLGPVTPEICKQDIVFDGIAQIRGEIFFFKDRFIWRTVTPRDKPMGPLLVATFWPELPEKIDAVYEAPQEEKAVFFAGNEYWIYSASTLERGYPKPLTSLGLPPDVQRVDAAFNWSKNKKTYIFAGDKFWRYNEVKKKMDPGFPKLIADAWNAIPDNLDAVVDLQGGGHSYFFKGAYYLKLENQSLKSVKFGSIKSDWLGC
# Chain of Trypsin (P00761 whole entry): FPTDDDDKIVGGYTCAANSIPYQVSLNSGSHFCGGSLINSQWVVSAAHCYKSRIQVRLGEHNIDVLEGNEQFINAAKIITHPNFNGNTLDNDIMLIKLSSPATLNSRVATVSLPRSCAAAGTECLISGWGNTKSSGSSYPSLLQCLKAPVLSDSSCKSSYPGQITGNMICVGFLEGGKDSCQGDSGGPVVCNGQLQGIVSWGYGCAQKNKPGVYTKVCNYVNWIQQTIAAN
# Chain of Nonstructural protein 1 (Q194T2 whole entry): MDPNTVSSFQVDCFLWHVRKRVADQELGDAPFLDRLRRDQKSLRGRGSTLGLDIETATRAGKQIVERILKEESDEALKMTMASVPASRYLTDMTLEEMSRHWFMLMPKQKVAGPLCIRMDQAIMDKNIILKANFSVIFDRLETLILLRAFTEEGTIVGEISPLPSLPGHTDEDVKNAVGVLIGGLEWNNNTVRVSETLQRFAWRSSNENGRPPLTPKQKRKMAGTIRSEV
# Chain of Glucose-6-phosphate 1-dehydrogenase (P11413 whole entry): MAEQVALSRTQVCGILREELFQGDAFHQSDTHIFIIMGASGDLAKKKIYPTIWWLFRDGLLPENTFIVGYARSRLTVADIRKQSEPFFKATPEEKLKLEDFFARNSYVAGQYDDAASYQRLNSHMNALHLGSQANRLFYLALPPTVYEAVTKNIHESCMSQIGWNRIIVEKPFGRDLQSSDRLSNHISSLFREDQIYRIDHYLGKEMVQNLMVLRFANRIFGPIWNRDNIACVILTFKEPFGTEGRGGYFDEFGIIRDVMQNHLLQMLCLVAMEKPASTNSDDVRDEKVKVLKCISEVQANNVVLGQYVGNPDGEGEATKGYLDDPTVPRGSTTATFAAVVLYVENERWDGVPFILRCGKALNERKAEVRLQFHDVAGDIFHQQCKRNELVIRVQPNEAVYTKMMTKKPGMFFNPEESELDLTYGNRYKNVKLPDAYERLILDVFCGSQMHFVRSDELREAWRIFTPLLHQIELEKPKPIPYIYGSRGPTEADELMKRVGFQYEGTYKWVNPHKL
# Chain of Albumin (P02769 whole entry): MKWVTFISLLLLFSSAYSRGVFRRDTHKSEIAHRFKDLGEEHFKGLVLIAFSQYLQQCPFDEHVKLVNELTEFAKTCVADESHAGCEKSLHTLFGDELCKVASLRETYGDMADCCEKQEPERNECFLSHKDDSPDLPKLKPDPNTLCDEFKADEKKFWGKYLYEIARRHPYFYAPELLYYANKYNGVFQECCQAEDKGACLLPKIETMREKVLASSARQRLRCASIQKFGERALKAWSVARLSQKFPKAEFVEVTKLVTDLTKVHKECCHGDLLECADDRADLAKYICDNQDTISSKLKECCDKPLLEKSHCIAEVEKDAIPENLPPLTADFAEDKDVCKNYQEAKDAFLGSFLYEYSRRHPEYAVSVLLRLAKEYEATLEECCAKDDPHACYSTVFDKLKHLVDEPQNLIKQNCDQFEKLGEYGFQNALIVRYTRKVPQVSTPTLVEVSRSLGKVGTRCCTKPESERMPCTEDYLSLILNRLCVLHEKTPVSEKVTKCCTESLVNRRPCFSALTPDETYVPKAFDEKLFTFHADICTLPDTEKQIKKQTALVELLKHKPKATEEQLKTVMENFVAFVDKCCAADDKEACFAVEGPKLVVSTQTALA
smiles,measurement,setting,value
O=[N+]([O-])c1ccc(NN=Cc2ccc(O)cc2O)nc1,IC50,[1],6.23 µM (active)
COc1ccc(-c2csc(NC(=O)c3ccc(Cl)cc3)n2)cc1,CC50,[2],> 40 µM (active)
COc1cc(Cn2c(N)c(C(=O)NCc3ccco3)c3nc4ccccc4nc32)cc(OC)c1OC,AC50,[3],22.3 µM (active)
same,AC50,[4],3.86 µM (active)
Cc1ccc(NNC(=O)c2ccno2)cc1Cl,AC50,[5],2.34 µM (active)
same,AC50,[6],0.223 µM (active)
same,AC50,[7],7.1 µM (active)
O=C(Nc1nc(-c2ccc(Cl)cc2)cs1)c1cccc(Cl)c1,CC50,[2],< 0.08 µM (active)
Cc1ccc2nc(C)cc(N/N=C/c3cccc(O)c3)c2c1,AC50,[6],1.02 µM (active)
COc1ccc(/C=N/Nc2ccccn2)cc1OC,AC50,[6],0.771 µM (active)
COc1ccc(C2c3ccc(O)cc3Oc3ncn(CCCO)c(=N)c32)cc1OC (stereo not drawn),AC50,[8],> 350 µM (inactive)
COc1ccc(-c2csc(NC(=O)Cc3cccc4ccccc34)c2C(=O)O)cc1,IC50,[9],42.3 µM (active)
same,EC50,[10],7.5 µM (active)
Cc1cc(O)nc(NN/C=C2/C(=O)N(c3ccccc3)C(=O)c3ccccc32)n1,IC50,[11],18.4 µM (active)
same,IC50,[9],47 µM (active)
same,IC50,[12],12 µM (active)
same,IC50,[13],37.2 µM (active)
same,IC50,[14],> 100 µM (inactive)
COc1cc(/C=C2\SC(c3ccc(C)cc3)=NC2=O)ccc1O,IC50,[15],> 80 µM (inactive)
same,IC50,[1],38.3 µM (inactive)
CC(=O)Nc1cccc(NC(=O)C2CCCN2C(=O)Nc2cccc(F)c2)c1 (stereo not drawn),IC50,[9],68.9 µM (active)
O=C(N/N=C/c1cc(Br)cc(Cl)c1O)c1ccc2c(c1)OCO2,CC50,[16],1.95 µM (active)
same,EC50,[17],> 150 µM (inactive)
same,IC50,[11],15.5 µM (active)
same,IC50,[18],> 94.1 µM (inactive)
same,EC50,[19],1.03 µM (active)
same,EC50,[20],> 350 µM (not active)
same,IC50,[13],33.8 µM (active)
same,EC50,[21],22.1 µM (active)
same,AC50,[7],4.16 µM (active)
same,IC50,[14],65.4 µM (active)
same,CC50,[22],7.35 µM (active)
same,CC50,[23],16.1 µM (active)
